Target: T1, full length Aurora-A (AA 1-403) (Homo sapiens, UniProt O14965)
T1 sequence (O14965 1-403): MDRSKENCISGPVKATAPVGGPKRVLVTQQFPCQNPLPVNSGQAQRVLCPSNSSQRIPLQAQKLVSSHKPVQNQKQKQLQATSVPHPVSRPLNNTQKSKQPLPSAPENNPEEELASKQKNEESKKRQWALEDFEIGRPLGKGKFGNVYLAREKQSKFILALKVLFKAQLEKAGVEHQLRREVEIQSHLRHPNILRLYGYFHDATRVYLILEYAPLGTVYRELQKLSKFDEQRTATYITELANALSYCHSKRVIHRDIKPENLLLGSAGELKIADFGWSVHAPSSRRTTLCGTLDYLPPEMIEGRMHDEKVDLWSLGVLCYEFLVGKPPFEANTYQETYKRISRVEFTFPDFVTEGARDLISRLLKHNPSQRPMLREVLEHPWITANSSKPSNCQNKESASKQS
Test: AuroraA Inhibition Assay (coupled enzyme system)
Assay type: biochemical
Conditions: 200 μM ATP, 800 μM peptide LRRASLG, 35 nM Aurora-A, 30° C.
Description: Compounds were screened for their ability to inhibit full length Aurora-A (AA 1-403) activity using a standard coupled enzyme system (Fox et al., Protein Sci., 7, pp. 2249 (1998)). Reactions were carried out in a solution containing 100 mM HEPES (pH 7.5), 10 mM MgCl2, 25 mM NaCl, 300 μM NADH, 1 mM DTT and 3% DMSO. Final substrate concentrations in the assay were 200 μM ATP (Sigma Chemicals, St Louis, Mo.) and 800 μM peptide (LRRASLG, American Peptide, Sunnyvale, Calif.). Reactions were carried out at 30° C. and 35 nM Aurora-A. Final concentrations of the components of the coupled enzyme system were 2.5 mM phosphoenolpyruvate, 200 μM NADH, 60 μg/ml pyruvate kinase and 20 μg/ml lactate dehydrogenase.
An assay stock buffer solution was prepared containing all of the reagents listed above with the exception of ATP and the test compound of interest. The assay stock buffer solution (60 μl) was incubated in a 96 well plate with 2 μl of the test compound of interest at final concentrations spanning 0.002 μM to 30 μM at 30° C. for 10 min. […] Rates of reaction were obtained using a Molecular Devices Spectramax plate reader (Sunnyvale, Calif.) over 10 min at 30° C. The Ki values were determined from the rate data as a function of inhibitor concentration using computerized nonlinear regression (Prism 3.0, Graphpad Software, San Diego, Calif.).

| Ki [nM] | SMILES |
| --- | --- |
| < 200 | C[C@H](Nc1nc(-c2c[nH]c3ncc(Cl)nc23)ncc1F)c1ccc(F)cc1 [Compound I-28] |
| < 200 | Clc1cnc2[nH]cc(-c3cccc(Br)c3)c2n1 [Compound I-1, 7-(3-Bromo-phenyl)-2-chloro-5H-pyrrolo[2,3-b]pyrazine] |
